The test system of one data set is β-hematin. Description: β-Hematin inhibition assay (BHIA), cell-free NP-40 mediated. Type of data set: biochemical. As to conditions: mean of n = 3. As for the experimental part:
page 20: fold to attain six assay concentrations of 100-0.001 μg/mL. […] was used as the reference compound in this assay. The highest concentration of DMSO, which was used as the negative control, had no measurable effect on cell viability. After 44 hours of exposure of the cells to the test compounds, a solution of MTT was added. This was followed by an additional 4 hours of incubation at 37 °C. The assay plates were centrifuged, medium removed, and DMSO was added to the crystals. The amount of formazan was ascertained by measuring the absorbance at 540 nm. GraphPad Prism software was then used to generate IC50 values through a non-linear dose-response curve analysis. β-Hematin Inhibition Assay 20 mM stock solutions of controls and test compounds were made in DMSO. A solution […] was added to every well in columns 1-11 of a 96-well plate. 140 μL of water and 40 μL of 305.5 μM NP-40 were added to column 12 to mediate the formation of beta-hematin. 20 μL of test compounds (20 mM) were added to column 12 and 100 μL of this solution serially diluted to column 2, leaving column 1 blank (0 μM of test compound). 178.8 μL aliquot of hematin stock was suspended in 20 ml of a 1 M acetate buffer at pH 4.9. 100 μL of this hematin […] pH 7.4 and 50% pyridine) and 60 μL of acetone were added to all wells. The absorbances of plate wells were recorded at 405 nm on a SpectraMax plate reader. Sigmoidal dose-response curves with variable slopes were fitted to the absorbance data using GraphPad Prism to obtain the IC50 values for each compound. In vitro Microsomal Stability Assay The in vitro microsomal stability assay was performed in duplicate in a 96-well micro titre […] individually in human (pool of 50, mixed gender), rat (pool of 711, male Sprague Dawley) and mouse (pool of 1634, male CD1) liver microsomes (final protein concentration of 0.4 mg/mL; Xenotech, Kansas, USA), suspended in 0.1M phosphate buffer (pH 7.4). Incubations were S20

A short description of another data set: Solubility. Type of data set: physicochemical. To be noted: pH 6.5, aqueous buffer. From the text:
Table 1 In Vitro Antiplasmodium Activity, Cytotoxicity, BHIA, and Solubility | column: Solubility pH 6.5, μM

Data set [1] in a line: In vitro microsomal stability, mouse liver microsomes. To be noted: 1 μM, 0.4 mg/mL protein. Type of data set: in vitro ADME. As for the experimental part:
Xenotech, Kansas, USA), suspended in 0.1 M phosphate buffer (pH 7.4). (Details of this assay are described in the Supporting Information.) page 20: fold to attain six assay concentrations of 100-0.001 μg/mL. […] was used as the reference compound in this assay. The highest concentration of DMSO, which was used as the negative control, had no measurable effect on cell viability. After 44 hours of exposure of the cells to the test compounds, a solution of MTT was added. This was followed by an additional 4 hours of incubation at 37 °C. The assay plates were centrifuged, medium removed, and DMSO was added to the crystals. The amount of formazan was ascertained by measuring the absorbance at 540 nm. GraphPad Prism software was then used to generate IC50 values through a non-linear dose-response curve analysis. β-Hematin Inhibition Assay 20 mM stock solutions of controls and test compounds were made in DMSO. A solution […] was added to every well in columns 1-11 of a 96-well plate. 140 μL of water and 40 μL of 305.5 μM NP-40 were added to column 12 to mediate the formation of beta-hematin. 20 μL of test compounds (20 mM) were added to column 12 and 100 μL of this solution serially diluted to column 2, leaving column 1 blank (0 μM of test compound). 178.8 μL aliquot of hematin stock was suspended in 20 ml of a 1 M acetate buffer at pH 4.9. 100 μL of this hematin suspension was then added into each well, and the plates were incubated for ±5 hrs at 37°C. Subsequently, 32 μL of pyridine solution (20% water, 20% acetone, 10% 2M HEPES buffer at pH 7.4 and 50% pyridine) and 60 μL of acetone were added to all wells. The absorbances of plate wells were recorded at 405 nm on a SpectraMax plate reader. Sigmoidal dose-response curves with variable slopes were fitted to the absorbance data using GraphPad Prism to obtain the IC50 values for each compound. In vitro Microsomal Stability Assay The in vitro microsomal stability assay was performed in duplicate in a 96-well micro titre […] individually in human (pool of 50, mixed gender), rat (pool of 711, male Sprague Dawley) and mouse (pool of 1634, male CD1) liver microsomes (final protein concentration of 0.4 mg/mL; Xenotech, Kansas, USA), suspended in 0.1M phosphate buffer (pH 7.4). Incubations were S20 page 21: started by addition of NADPH (1 mM) as cofactor and shaken for 30 minutes at 37 °C. The reactions were then quenched by adding 300 μL of ice-cold acetonitrile containing internal standard (carbamazepine, 0.0236 μg/mL) and centrifuged. The supernatant was transferred to a fresh 96-well plate and analysed by LC-MS/MS (Agilent Rapid Resolution HPLC, AB SCIEX 4500 MS). The relative loss of parent compound over time was monitored and plots (concentration vs. time) were prepared per compound to determine the first order rate constant for compound depletion. This was in turn used to calculate half-life, in vitro intrinsic clearance and in vivo hepatic extraction ratio.6 Metabolite Identification Studies […] microsomes (MLM, male mouse CD1, Lot No. 1510043, Xenotech), magnesium chloride (5 mM) and NADPH (1 mM) in sodium phosphate buffer (100 mM, pH 7.4) for 60 minutes while shaking. The samples were then prepared by ice-cold acetonitrile precipitation, centrifuged, and filtered for LC-MS/MS analysis. […] Fluorescence Live-cell Microscopy […] […]

≈ marks a conversion by molar mass, not a printed value.

What is called IC50 is the midpoint of a concentration-inhibition curve. Low values mean greater potency in that assay, high ones weaker potency in that assay. As a reminder, the solubility is how much of the substance goes into solution per volume. Read a low solubility as little dissolved substance.

On to `CCN(CCNc1cc2[nH]c(C3CCCC3)nc2cn1)Cc1ccc(Cl)cc1O` [Compound 1, 5-Chloro-2-(((2-((2-cyclopentyl-1H-imidazo[4,5-c]pyridin-6-yl)amino)ethyl)(ethyl)amino)methyl)phenol], for which the IC50 in the data set on β-hematin worked out at 18 µM. Further, in “Solubility”, the concentration in solution (solubility) came to 15 µM (≈ 6.21 µg/mL). The “Microsomal EH (hepatic extraction ratio), mouse” value in data set [1] is reported as 0.88.
In the data set on β-hematin, `CCN(CCNc1cc2[nH]c(-c3cccc(C(F)(F)F)c3)nc2cn1)Cc1ccc(Cl)cc1O` [Compound 14, 5-Chloro-2-((ethyl(2-((2-(3-(trifluoromethyl)phenyl)-1H-imidazo[4,5-c]pyridin-6-yl)amino)ethyl)amino)methyl)phenol] yielded an IC50 of 9 µM. Moreover, in the data set “Solubility”, the concentration in solution (solubility) was 65 µM (≈ 31.8 µg/mL). Moreover, in data set [1], the “Microsomal EH (hepatic extraction ratio), mouse” value stood at 0.81.
For the compound `CCN(CCNc1cc2[nH]c(C3(C)CC3)nc2cn1)Cc1ccc(Cl)cc1O` [Compound 6, 5-Chloro-2-((ethyl(2-((2-(1-methylcyclopropyl)-1H-imidazo[4,5-c]pyridin-6-yl)amino)ethyl)amino)methyl)phenol], the IC50 with β-hematin was determined as 33 µM. The compound further showed a solubility in the data set “Solubility” of 200 µM (≈ 80 µg/mL). Besides, the “Microsomal EH (hepatic extraction ratio), mouse” value in data set [1] worked out at 0.90.
`CCN(CCNc1cc2[nH]c(-c3ccc(C(F)(F)F)nc3)nc2cn1)Cc1ccc(Cl)cc1O` [Compound 19, 5-Chloro-2-((ethyl(2-((2-(6-(trifluoromethyl)pyridin-3-yl)-1H-imidazo[4,5-c]pyridin-6-yl)amino)ethyl)amino)methyl)phenol] showed an IC50 in the data set with β-hematin of 65 µM. Also, the concentration in solution in the data set “Solubility” (solubility) came to 140 µM (≈ 68.7 µg/mL). Also, the “Microsomal EH (hepatic extraction ratio), mouse” value in data set [1] is 0.84.
For `CCN(CCNc1cc2[nH]c(C3CC3)nc2cn1)Cc1ccc(Cl)cc1O` [Compound 5, 5-Chloro-2-(((2-((2-cyclopropyl-1H-imidazo[4,5-c]pyridin-6-yl)amino)ethyl)(ethyl)amino)methyl)phenol] the same measures were 16 µM, 25 µM (≈ 9.65 µg/mL) and 0.81.

The values above are taken from article PMC10111423, “Antimalarial Imidazopyridines Incorporating an Intramolecular Hydrogen Bonding Motif: Medicinal Chemistry and Mechanistic Studies” (ACS Infectious Diseases, 2023).
